The values that follow come from US7683181B2, “Cyclic N-[1,3,4]-thiadiazol-2-yl-benzene sulfonamides, pharmaceutical compositions and methods for the therapeutic use thereof” (Sanofi-aventis, priority 2005, dated 2010).

Structures are written as SMILES. pEC50: −log10 of the molar value.

One test addresses T1, human PPARgamma (Homo sapiens, UniProt P37231).
T1 construct: amino acids I152-Y475; expressed in transfected cells; host or cells: HEK cells, transient transfection of pcDNA3-GAL4-humanPPARgammaLBD
Briefly: cellular PPARgamma assay (transiently transfected HEK cells, luciferase reporter). The class given is cell-based. The following applies: GAL4-humanPPARgammaLBD. The text has this:
Determination of EC50 values of PPAR agonists in the cellular PPARgamma assay
A transient transfection system is employed to determine the cellular PPARgamma activity of PPAR agonists. It is based on the use of a luciferase reporter plasmid (pGL3basic-5×GAL4-TK) and of a PPARgamma expression plasmid (pcDNA3-GAL4-humanPPARgammaLBD). Both plasmids are transiently transfected into human embryonic kidney cells (HEK cells). There is then expression in these cells of the fusion protein GAL4-humanPPARgammaLBD which binds to the GAL4 binding sites of the reporter plasmid. In the presence of a PPARgamma-active ligand, the activated fusion protein GAL4-humanPPARgammaLBD induces expression of the luciferase reporter gene, which can be detected in the form of a chemiluminescence signal after addition of a luciferase substrate. As a difference from the stably transfected PPARalpha reporter cell line, in the cellular PPARgamma assay the two components (luciferase reporter plasmid and PPARgamma expression plasmid) are transiently transfected into HEK cells because stable and permanent expression of the PPARgamma fusion protein is cytotoxic.
The luciferase reporter plasmid pGL3basic-5×GAL4-TK is based on the vector pGL3basic from Promega. The reporter plasmid is prepared by cloning five binding sites of the yeast transcription factor GAL4 (each binding site with the sequence 5′-CTCGGAGGACAGTACTCCG-3′), together with a 160 bp-long thymidine kinase promoter section (Genbank Accession #AF027128) 5′-upstream into pGL3basic. 3′-downstream of the thymidine kinase promoter is the complete luciferase gene from Photinus pyralis (Genbank Accession #M15077) which is already a constituent of the plasmid pGL3basic used. The cloning and sequencing of the reporter plasmid pGL3basic-5×GAL4-TK took place in analogy to the description in Sambrook J. et. al. (Molecular cloning, Cold Spring Harbor Laboratory Press, 1989).
The PPARgamma expression plasmid pcDNA3-GAL4-humanPPARgammaLBD was prepared by first cloning the cDNA coding for amino acids 1-147 of the yeast transcription factor GAL4 (Genbank Accession #P04386) into the plasmid pcDNA3 (from Invitrogen) 3′-downstream of the cytomegalovirus promoter. Subsequently, the cDNA of the ligand-binding domain (LBD) of the human PPARgamma receptor (amino acids I152-Y475; Accession #g1480099) 3′-downstream of the GAL4 DNA binding domain. Cloning and sequencing of the PPARgamma expression plasmid pcDNA3-GAL4-humanPPARgammaLBD again took place in analogy to the description in Sambrook J. et. al. (Molecular cloning, Cold Spring Harbor Laboratory Press, 1989). […]
The activity of PPARgamma agonists is determined in a 4-day assay which is described below. […]

For the next test, the target named is T2, human PPARdelta (Homo sapiens, UniProt Q03181).
T2 construct: amino acids S139-Y441; expressed in transfected cells
T2 sequence (Q03181 139-441): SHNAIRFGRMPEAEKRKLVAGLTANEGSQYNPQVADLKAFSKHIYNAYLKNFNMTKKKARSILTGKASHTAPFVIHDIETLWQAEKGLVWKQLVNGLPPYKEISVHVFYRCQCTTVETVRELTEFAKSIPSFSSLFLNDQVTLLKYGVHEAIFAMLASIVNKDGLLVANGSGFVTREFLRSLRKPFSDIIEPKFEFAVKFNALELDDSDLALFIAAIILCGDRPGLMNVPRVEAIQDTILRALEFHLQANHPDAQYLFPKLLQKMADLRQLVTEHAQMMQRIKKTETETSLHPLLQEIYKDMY
Briefly: cellular PPARdelta assay (stably transfected HEK luciferase reporter cell line). The class given is cell-based. The following applies: GR-GAL4-humanPPARdelta-LBD. The protocol:
The assay plates are incubated in an incubator at 37° C. and 5% CO2 for 24 h. […]
The raw data from the luminometer are transferred into a Microsoft Excel file. Dose-effect plots and EC50 values of PPAR agonists are calculated using the XL.Fit program as specified by the manufacturer (IDBS).
The potency of substances which bind to human PPARdelta and activate it in an agonistic manner was analyzed through the determination of the EC50 values of PPAR agonists in the cellular PPARdelta assay using a stably transfected HEK cell line (HEK=human embryo kidney) which is referred to here as PPARdelta reporter cell line. In analogy to the assay described for PPARalpha, the PPARdelta reporter cell line also contains two genetic elements, a luciferase reporter element (pdeltaM-GAL4-Luc-Zeo) and a PPARdelta fusion protein (GR-GAL4-humanPPARdelta-LBD) which mediates expression of the luciferase reporter element depending on a PPARdelta ligand. The stably and constitutively expressed fusion protein GR-GAL4-humanPPARdelta-LBD binds in the cell nucleus of the PPARdelta reporter cell line via the GAL4 protein portion to the GAL4 DNA binding motifs 5′-upstream of the luciferase reporter element which is stably integrated in the genome of the cell line. There is only little expression of the luciferase reporter gene in the absence of a PPARdelta ligand if fatty acid-depleted fetal calf serum (cs-FCS) is used in the assay. PPARdelta ligands bind and activate the PPARdelta fusion protein and thereby stimulate expression of the luciferase reporter gene. The luciferase which is formed can be detected by means of chemiluminescence via an appropriate substrate.
The production of the stable PPARdelta reporter cell line is based on a stable HEK-cell clone which was stably transfected with a luciferase reporter element. This step was already described above in the section “construction of the PPARalpha reporter cell line”. […]
The activity of PPARdelta agonists is determined in a 3-day assay in exact analogy to the procedure already described for the PPARalpha reporter cell line except that the PPARdelta reporter cell line and a specific PPARdelta agonist was used as a standard to control test efficacy.
Background: A reporter such as luciferase makes a cellular process visible.

Test [1] relates to PPARdelta. The following applies: diabetic animal model; cited from earlier work.
Test [2] concerns PPARdelta. The following applies: obese, insulin resistant rhesus monkeys; cited from earlier work.

T1 sequence (P37231 with tags, fused parts or gaps isoform P37231-2 limits assumed): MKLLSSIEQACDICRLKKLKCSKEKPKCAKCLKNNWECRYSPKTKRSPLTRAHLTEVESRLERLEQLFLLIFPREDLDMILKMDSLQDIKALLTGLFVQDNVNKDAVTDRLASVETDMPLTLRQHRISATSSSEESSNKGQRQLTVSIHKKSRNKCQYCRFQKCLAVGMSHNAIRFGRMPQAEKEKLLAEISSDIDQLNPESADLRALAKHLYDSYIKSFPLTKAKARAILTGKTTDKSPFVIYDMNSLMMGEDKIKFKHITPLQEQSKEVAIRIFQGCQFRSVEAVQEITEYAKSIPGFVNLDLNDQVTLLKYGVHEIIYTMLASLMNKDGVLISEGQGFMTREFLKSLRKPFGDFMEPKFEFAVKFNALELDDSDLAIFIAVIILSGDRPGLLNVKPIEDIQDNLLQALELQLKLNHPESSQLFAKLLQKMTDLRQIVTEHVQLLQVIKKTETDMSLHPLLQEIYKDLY

In general, pEC50 refers to the negative decadic logarithm of the EC50, by convention in mol/L. Higher therefore signals a small EC50. `CCOc1cc(C(F)(F)F)ccc1C(=O)N[C@@H]1CCC[C@H]1c1ccc(S(=O)(=O)Nc2nnc(C(C)C)s2)cc1` (relative stereo) [Example 2, 2-Ethoxy-N-{trans-2-[4-(5-isopropyl-[1,3,4]thiadiazol-2-ylsulfamoyl)-phenyl]-cyclopentyl}-4-trifluoromethyl-benzamide]: the pEC50 was 6.37 on human PPARgamma and 7.59 at human PPARdelta.

Regarding `CCOc1cc(C(F)(F)F)ccc1C(=O)N[C@@H]1CCC[C@@H]1c1ccc(S(=O)(=O)Nc2nnc(C(C)C)s2)cc1` (relative stereo) [Example 3, 2-Ethoxy-N-{cis-2-[4-(5-isopropyl-[1,3,4]thiadiazol-2-ylsulfamoyl)-phenyl]-cyclopentyl}-4-trifluoromethyl-benzamide], the pEC50 at human PPARgamma is 6.64; at human PPARdelta it was 6.62.

Regarding `CCOc1cc(C(F)(F)F)ccc1C(=O)NCC1(c2ccc(S(=O)(=O)Nc3nnc(C(C)C)s3)cc2)CCCCC1` [Example 1, 2-Ethoxy-N-{1-[4-(5-isopropyl-[1,3,4]thiadiazol-2-ylsulfamoyl)-phenyl]-cyclohexylmethyl}-4-trifluoromethyl-benzamide], the pEC50 on human PPARgamma is less than 5.00; at human PPARdelta, 6.92.

With `CCOc1cc(C(F)(F)F)ccc1C(=O)NCC1(c2ccc(S(=O)(=O)Nc3nnc(C(C)C)s3)cc2)CCCC1` [Example 4, 2-Ethoxy-N-{1-[4-(5-isopropyl-[1,3,4]thiadiazol-2-ylsulfamoyl)-phenyl]-cyclopentylmethyl}-4-trifluoromethyl-benzamide], the pEC50 is 8.15 on human PPARgamma and 7.68 on human PPARdelta.

In the case of `CCCc1c(OCCCOc2ccc(OCC(=O)O)cc2)ccc(C(C)=O)c1O` [Example L-165041], the plasma cholesterol result with PPARdelta [1] is “raises”.

In the case of `Cc1cc(SCc2sc(-c3ccc(C(F)(F)F)cc3)nc2C)ccc1OCC(=O)O` [GW501516], in the test with PPARdelta [2], the HDL-cholesterol entry is given as “raises”, the insulin levels result is “decreases”, the “plasma LDL-cholesterol” value is “decreases” and the triglycerides result is “decreases”.
